Results from BigSolDB 2.1.

Nc1cc(-c2ccncc2)c[nH]c1=O
solubility (mole fraction)
Details	278.15 K	283.15 K	288.15 K	293.15 K	298.15 K	303.15 K	308.15 K	313.15 K	318.15 K	323.15 K
in DMF	7.24e-05	8.63e-05	0.000102	0.000118	0.000135	0.000154	0.000177	0.000203	0.000229	0.00026
in ethanol	2.65e-05	3.18e-05	3.71e-05	4.41e-05	5.07e-05	5.84e-05	6.7e-05	7.54e-05	8.47e-05	9.67e-05
in ethylene glycol	1.95e-05	2.33e-05	2.74e-05	3.26e-05	3.83e-05	4.35e-05	4.95e-05	5.62e-05	6.36e-05	7.18e-05
in methanol	5.18e-05	6.11e-05	7.22e-05	8.44e-05	9.72e-05	0.000111	0.000126	0.000141	0.00016	0.00018
in water	6.85e-07	8.07e-07	9.66e-07	1.13e-06	1.33e-06	1.53e-06	1.77e-06	2.02e-06	2.3e-06	2.63e-06
